Assay results reported in ChEMBL document CHEMBL1142732, “In-depth study of tripeptide-based alpha-ketoheterocycles as inhibitors of thrombin. Effective utilization of the S1' subsite and its implications to structure-based drug design” (J Med Chem, 2005).

Assays:
Prothrombin [1] = target: T1, Prothrombin (Homo sapiens, UniProt P00734); assay: Inhibitory concentration against human alpha thrombin
Prothrombin [2] = target: T1, Prothrombin; assay: Binding affinity determined against human alpha thrombin
Serine protease 1 = target: T2, Serine protease 1 (Bos taurus, UniProt P00760); assay: Binding affinity against bovine trypsin
T2 sequence (P00760 whole entry): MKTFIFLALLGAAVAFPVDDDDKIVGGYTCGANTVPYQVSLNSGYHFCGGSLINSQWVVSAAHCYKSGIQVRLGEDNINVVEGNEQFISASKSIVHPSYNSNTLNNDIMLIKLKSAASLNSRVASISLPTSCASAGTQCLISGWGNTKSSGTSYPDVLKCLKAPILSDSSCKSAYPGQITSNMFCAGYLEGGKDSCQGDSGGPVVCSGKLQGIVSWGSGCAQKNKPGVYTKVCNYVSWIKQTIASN

Homo sapiens = species on record: Homo sapiens; assay: Inhibitory concentration against gel filtered platelet aggregation induced by alpha thrombin; type: functional
Cavia porcellus [3] = assay: Percent change in blood pressure in guinea pig at 3 mg/kg dose
Cavia porcellus [4] = assay: Percent change in blood pressure in guinea pig at 10 mg/kg dose

Row | Compound | IC50 (Prothrombin [1]) [nM] | Ki (Prothrombin [2]) [nM] | Ki (Serine protease 1) [nM] | IC50 (Homo sapiens) [nM] | Delta BP (Cavia porcellus [3]) [%] | Delta BP (Cavia porcellus [4]) [%]
1 | CN[C@H](Cc1ccccc1)C(=O)N1CCC[C@H]1C(=O)N[C@H](CCCN=C(N)N)C(=O)c1nc2ccccc2s1 | 80 | 17 | – | – | – | –
2 | CC(=O)N1CCC[C@H]1C(=O)NC(CCCN=C(N)N)C(=O)c1nc2ccccc2s1 (stereo partly specified) | 14000 | – | – | – | – | –
3 | NC(N)=NCCCC(NC=O)C(=O)c1nc2ccccc2s1 (stereo unspecified) | > 50000 | – | 1300 | – | – | –
4 | CN[C@H](Cc1ccccc1)C(=O)N1CCC[C@H]1C(=O)NC(C(=O)c1nc2ccccc2s1)C1CCC(N)CC1 (stereo partly specified) | 1900 | 110 | 330 | 76 | -25 | –
5 | CN[C@H](Cc1ccccc1)C(=O)N1CCC[C@H]1C(=O)NC(CCCN=C(N)N)C(=O)c1nc2c(s1)CCCC2 (stereo partly specified) | 80 | 3.4 | 4.4 | 22 | – | -70
6 | CN[C@H](Cc1ccccc1)C(=O)N1CCC[C@H]1C(=O)NC(CCCN=C(N)N)C(=O)c1nc2ccccc2o1 (stereo partly specified) | 110 | 6.2 | 13 | – | – | –
7 | CCOC(=O)c1csc(C(=O)C(CCCN=C(N)N)NC(=O)[C@@H]2CCCN2C(=O)[C@@H](Cc2ccccc2)NC)n1 (stereo partly specified) | 120 | 4.5 | 5.4 | – | – | –
8 | CN[C@H](Cc1ccc(F)cc1)C(=O)N1CCC[C@H]1C(=O)NC(CCCN=C(N)N)C(=O)c1nc2ccccc2s1 (stereo partly specified) | 15 | 0.12 | 3 | – | – | –
9 | CN[C@H](Cc1ccccc1)C(=O)N1CCC[C@H]1C(=O)NC(CCCN=C(N)N)C(=O)c1nc2ccc(OC)cc2s1 (stereo partly specified) | – | – | 2 | – | -44 | –
10 | CN[C@H](Cc1ccccc1)C(=O)N1CCC[C@H]1C(=O)N(C)[C@@H](CCCN=C(N)N)C(=O)c1nc2ccccc2s1 | 21000 | 2100 | 5300 | – | – | –
11 | CN[C@H](Cc1ccccc1)C(=O)N1CCC[C@H]1C(=O)N[C@H](CCCCN)C(=O)c1nc2ccccc2s1 | – | 210 | 20 | – | -41 | –
12 | N=C(N)NCCC[C@H](NC(=O)CN1CCCC[C@H](NS(=O)(=O)Cc2ccccc2)C1=O)C(=O)c1nc2ccccc2s1 | 270 | 16 | 9.4 | 47 | – | -39
13 | CN[C@H](Cc1ccccc1)C(=O)N1CCC[C@H]1C(=O)NC(CCCN=C(N)N)C(=O)c1nc2ccc(O)cc2s1 (stereo partly specified) | – | – | – | – | -34 | –
14 | CN[C@H](Cc1ccccc1)C(=O)N1CCC[C@H]1C(=O)NC(CCCN=C(N)N)C(=O)c1nc(C(=O)O)cs1 (stereo partly specified) | 112 | 9.1 | 6 | – | – | –
15 | CN[C@H](Cc1ccccc1)C(=O)N1CCC[C@H]1C(=O)NC(CCCN=C(N)N)C(=O)c1nc(C(=O)NCCc2ccccc2)cs1 (stereo partly specified) | 830 | 120 | 5 | – | – | –
16 | CN[C@H](Cc1ccccc1)C(=O)N1CCC[C@H]1C(=O)N[C@@H](CCCOC)C(=O)c1nc2ccccc2s1 | 46000 | 3900 | 12000 | – | – | –
17 | CN[C@H](Cc1ccccc1)C(=O)N1CCC[C@H]1C(=O)N[C@H](Cc1cccc(C(=N)N)c1)C(=O)c1nc2ccccc2s1 | 370 | 15 | 2600 | – | – | –
18 | CNC1(C(=O)N2CCC[C@H]2C(=O)NC(CCCN=C(N)N)C(=O)c2nc3ccccc3s2)CCCCC1 (stereo partly specified) | 490 | 73 | 2.6 | – | – | –
19 | CN[C@H](Cc1ccccc1)C(=O)N1CCC[C@H]1C(=O)NC(CCCN=C(N)N)C(=O)c1cc2ccccc2s1 (stereo partly specified) | 13000 | 2400 | 1300 | – | – | –
20 | NC(N)=NCCCC(NC(=O)[C@@H]1CCCN1)C(=O)c1nc2ccccc2s1 (stereo partly specified) | – | – | 250 | – | – | –
21 | CN[C@H](Cc1ccccc1)C(=O)N1CCC[C@H]1C(=O)N[C@@H](C[C@H]1CCCN(C(=N)N)C1)C(=O)c1nc2ccccc2s1 | 1000 | 99 | 210 | – | – | –
22 | CCCC(CCC)C(=O)N[C@@H](CC(=O)OC)C(=O)N1CCC[C@H]1C(=O)N[C@@H](CCCNC(=N)N)C(=O)c1nc2ccccc2s1 | 56 | 1.4 | 16 | 16 | – | –
23 | CN[C@H](Cc1ccccc1)C(=O)N1CCC[C@H]1C(=O)N[C@@H](CCCNC(=N)N)C(=O)c1nccn1C | 1500 | – | 5800 | 230 | – | -68
24 | CN[C@H](Cc1ccccc1)C(=O)N1CCC[C@H]1C(=O)N[C@H](C(=O)c1nc2ccccc2s1)[C@H]1CC[C@H](CN)CC1 | 17000 | 920 | 54 | – | – | –
25 | CN[C@H](Cc1ccccc1)C(=O)N1CCC[C@H]1C(=O)N[C@@H](CCCNC(=N)N)C(=O)c1nccs1 | 19 | – | 1.2 | – | – | –
26 | CNC(C(=O)N1CCC[C@H]1C(=O)NC(CCCN=C(N)N)C(=O)c1nc2ccccc2s1)(c1ccccc1)c1ccccc1 (stereo partly specified) | 15 | 2.1 | 1.8 | – | – | –

Row | Compound | IC50 (Prothrombin [1]) [nM] | Ki (Prothrombin [2]) [nM] | Ki (Serine protease 1) [nM] | IC50 (Homo sapiens) [nM] | Delta BP (Cavia porcellus [3]) [%] | Delta BP (Cavia porcellus [4]) [%]
27 | Cc1cccc(C(C)(C)CN(CC(=O)N[C@@H](CCCN=C(N)N)C(=O)c2nc3ccccc3s2)C(=O)CCc2ccccc2)c1 | 4000 | 400 | 57 | – | – | –
28 | N=C(N)NCCCC(NC(=O)C1CCCC1)C(=O)c1nc2ccccc2s1 (stereo unspecified) | – | – | 30 | – | – | –
29 | CN[C@H](Cc1c(F)c(F)c(F)c(F)c1F)C(=O)N1CCC[C@H]1C(=O)NC(CCCN=C(N)N)C(=O)c1nc2ccccc2s1 (stereo partly specified) | 150 | 3.8 | 9.3 | – | – | –
30 | CN[C@H](Cc1ccccc1)C(=O)N1CCC[C@H]1C(=O)NC(CCCN=C(N)N)C(=O)c1nc2ccc3ccccc3c2s1 (stereo partly specified) | 60 | 0.58 | 15 | – | – | -51
31 | CN[C@H](Cc1ccccc1)C(=O)N1CCCC[C@H]1C(=O)NC(CCCN=C(N)N)C(=O)c1nc2ccccc2s1 (stereo partly specified) | 38 | 0.34 | 1.8 | 10 | -45 | –
32 | CN[C@@H](C(=O)N1CCC[C@H]1C(=O)NC(CCCN=C(N)N)C(=O)c1nc2ccccc2s1)C1CCCCC1 (stereo partly specified) | 5.3 | – | 1.2 | 17 | -21 | –
33 | CN[C@H](Cc1ccccc1)C(=O)N1CCC[C@H]1C(=O)N[C@@H](C[C@@H]1CCCN(C(=N)N)C1)C(=O)c1nc2ccccc2s1 | 51 | 1.6 | 8 | – | – | –
34 | CC(=O)N[C@H](Cc1ccccc1)C(=O)N1CCC[C@H]1C(=O)NC(CCCN=C(N)N)C(=O)c1nc2ccccc2s1 (stereo partly specified) | 430 | – | 2.4 | – | – | –
35 | CN[C@H](Cc1ccccc1)C(=O)N1CCC[C@H]1C(=O)N[C@@H](Cc1cccc(C(=N)N)c1)C(=O)c1nc2ccccc2s1 | – | 0.99 | 1.8 | – | – | –
36 | N=C(N)NCCCC(NC(=O)[C@@H]1CCCN1C(=O)C(O)C1c2ccccc2-c2ccccc21)C(=O)c1nc2ccccc2s1 (stereo partly specified) | 95 | 3.1 | 2 | – | – | -71
37 | C[C@@](N)(Cc1ccccc1)C(=O)N1CCC[C@H]1C(=O)NC(CCCN=C(N)N)C(=O)c1nc2ccccc2s1 (stereo partly specified) | – | – | 3.9 | – | – | –
38 | CN[C@H](Cc1ccccc1)C(=O)N1CCC[C@H]1C(=O)NC(CCCN=C(N)N)C(=O)c1nc2ccccc2c(=O)[nH]1 (stereo partly specified) | 106 | 15 | 8.3 | – | – | –
39 | CCS(=O)(=O)N[C@H](Cc1ccccc1)C(=O)N1CCC[C@H]1C(=O)NC(C(=O)c1nc2ccccc2s1)C1CCC(N)CC1 (stereo partly specified) | 460 | 53 | 87 | 120 | – | –
40 | CN[C@H](Cc1ccccc1)C(=O)N1CCC[C@H]1C(=O)NC(CCCN=C(N)N)C(=O)c1nc2ccccc2n1C (stereo partly specified) | 110 | 8.1 | 290 | 59 | -30 | –
41 | CN[C@H](CC1CCCCC1)C(=O)N1CCC[C@H]1C(=O)NC(CCCN=C(N)N)C(=O)c1nc2ccccc2s1 (stereo partly specified) | – | – | 3.9 | 28 | -49 | –
42 | CN[C@@H](C(=O)N1CCC[C@H]1C(=O)NC(CCCN=C(N)N)C(=O)c1nc2ccccc2s1)c1ccccc1 (stereo partly specified) | 34 | 0.46 | – | 17 | -63 | –
43 | CN[C@H](Cc1ccccc1)C(=O)N1CCC[C@H]1C(=O)NC(CCCN=C(N)N)C(=O)c1nc2ccc(CO)cc2s1 (stereo partly specified) | – | – | 5.3 | – | – | –
44 | CN[C@H](Cc1ccccc1)C(=O)N1CCC[C@H]1C(=O)N[C@@H](CCCCN)C(=O)c1nc2ccccc2s1 | 650 | 38 | 4.3 | – | -45 | –
45 | CS(=O)(=O)CC[C@H](NS(=O)(=O)Cc1ccccc1)C(=O)N1CCC[C@H]1C(=O)N[C@@H](CCCNC(=N)N)C(=O)c1nc2ccccc2s1 | 95 | 1.5 | 2.7 | 37 | – | -64
46 | CN[C@H](Cc1ccccc1)C(=O)N1CCC[C@H]1C(=O)N[C@@H](CCCNC(=N)N)C(=O)c1ccccn1 | 930 | – | – | – | – | –
47 | CN[C@H](Cc1ccccc1)C(=O)N1CCC[C@H]1C(=O)NC(CCCN=C(N)N)C(=O)c1nc2ccccc2[nH]1 (stereo partly specified) | 360 | 9.6 | 12 | – | – | –
48 | CN[C@H](Cc1ccccc1)C(=O)N1CCC[C@H]1C(=O)N[C@H](C[C@H]1CCCN(C(=N)N)C1)C(=O)c1nc2ccccc2s1 | – | 380 | 540 | – | – | –
49 | CN[C@H](Cc1ccccc1)C(=O)N1CCC[C@H]1C(=O)NC(CCCN=C(N)N)C(=O)c1nc2ccc(F)cc2s1 (stereo partly specified) | – | – | 1.5 | – | – | –
50 | CN[C@H](Cc1ccccc1)C(=O)N1CCC[C@H]1C(=O)N[C@H](C=O)CCCN=C(N)N (stereo in doubt) | – | 18 | – | – | – | –
51 | CN[C@H](Cc1ccccc1)C(=O)N1CCC[C@H]1C(=O)N[C@@H](CCCN=C(N)N)C(O)c1nc2ccccc2s1 (stereo in doubt; form 1) | 48000 | 5300 | 180000 | – | – | –
52 | CN[C@H](Cc1ccccc1)C(=O)N1CCC[C@H]1C(=O)N[C@@H](CCCN=C(N)N)C(O)c1nc2ccccc2s1 (stereo in doubt; form 2) | 17000 | 1600 | 250000 | – | – | –
